How the values were obtained:
SARS-CoV-2 [1] = conditions: incubation of SARS-CoV-2 with compound for 1 hr at 37° C., plaque assay
SARS-CoV-2 [2] = test: viral load reduction assay in human lung epithelial (Calu) cells (RT-qPCR of released genome copies); format: cell-based; conditions: MOI 1, 150 uM, 16 h pi
SARS-CoV-2 [3] = test: viral load reduction assay in Vero E6 cells (RT-qPCR of released genome copies); format: cell-based
SARS-CoV-2 [4] = test: time of addition assay in Vero cells, plaque assay; format: cell-based; conditions: infectious particles by plaque assay at 16 h pi

CC(C)NC[C@@H](O)COc1cccc2ccccc12 [R-propranolol, (R)-(+)-1-(isopropylamino)-3-(naphthalen-1-yloxy)propan-2-ol]
reduction of infectivity of virus particles (virucidal activity) (SARS-CoV-2 [1]): does not reduce infectivity of virus particles | reduction in extracellular SARS-CoV-2 genome copies (SARS-CoV-2 [2]): about 1.5 log | efficacy in viral load reduction compared with remdesivir (SARS-CoV-2 [3]; 25 uM): approximately the same efficacy as remdesivir | reduction in extracellular SARS-CoV-2 genome copies (SARS-CoV-2 [3]; MOI 1, 50 uM, 16 h post-infection): ~2.5 log | reduction of viral load by time of addition (SARS-CoV-2 [4]): highest reduction of viral load upon pre-treatment

— patent publication US20240358659A1, “Uses of Propranolol for Managing Viral Infections” (Emory University, priority 2021, published 2024)
